# Source: ChEMBL document CHEMBL5653615 (J Biol Chem, 2013)
# Assays:
# [1] = target: Fibroblast growth factor receptor 3 (Homo sapiens) (UniProt P22607); experiment: Inhibition of human FGFR3 at 18.6 nM by HotSpot assay relative to control
# [2] = target: Calcium/calmodulin-dependent protein kinase type 1 (Homo sapiens) (UniProt Q14012); experiment: Inhibition of human CAMK1a at 18.6 nM by HotSpot assay relative to control
# [3] = target: T1, Inhibitor of nuclear factor kappa-B kinase subunit alpha (Homo sapiens) (UniProt O15111); experiment: Inhibition of human IKKa at 18.6 nM by HotSpot assay relative to control
# T1 sequence (whole entry): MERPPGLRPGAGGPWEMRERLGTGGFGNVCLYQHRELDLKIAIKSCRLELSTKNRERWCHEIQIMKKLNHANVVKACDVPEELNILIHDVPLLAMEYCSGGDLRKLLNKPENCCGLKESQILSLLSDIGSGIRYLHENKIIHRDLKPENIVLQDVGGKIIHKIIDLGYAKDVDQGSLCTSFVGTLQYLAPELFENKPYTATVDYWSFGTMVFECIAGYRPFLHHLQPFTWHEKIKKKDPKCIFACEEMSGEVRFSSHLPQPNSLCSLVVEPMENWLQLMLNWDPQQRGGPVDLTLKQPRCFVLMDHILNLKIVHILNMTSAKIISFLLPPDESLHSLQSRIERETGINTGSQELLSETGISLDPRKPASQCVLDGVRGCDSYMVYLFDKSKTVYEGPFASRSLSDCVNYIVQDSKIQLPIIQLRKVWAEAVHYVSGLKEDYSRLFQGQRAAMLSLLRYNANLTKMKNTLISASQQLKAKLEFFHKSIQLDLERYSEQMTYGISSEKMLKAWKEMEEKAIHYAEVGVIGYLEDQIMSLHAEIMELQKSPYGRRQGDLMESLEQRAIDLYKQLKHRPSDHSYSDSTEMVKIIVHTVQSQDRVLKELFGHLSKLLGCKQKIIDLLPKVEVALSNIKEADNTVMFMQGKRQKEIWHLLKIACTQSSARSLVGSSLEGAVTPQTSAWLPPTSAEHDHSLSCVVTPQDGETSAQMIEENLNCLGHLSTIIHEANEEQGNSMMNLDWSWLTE
# [4] = target: Serine/threonine-protein kinase Nek7 (Homo sapiens) (UniProt Q8TDX7); experiment: Inhibition of human NEK7 at 1.82 nM by HotSpot assay relative to control
# [5] = target: T2, Aurora kinase A (Homo sapiens) (UniProt O14965); experiment: Inhibition of human Aurora A at 1.82 nM by HotSpot assay relative to control
# T2 sequence (whole entry): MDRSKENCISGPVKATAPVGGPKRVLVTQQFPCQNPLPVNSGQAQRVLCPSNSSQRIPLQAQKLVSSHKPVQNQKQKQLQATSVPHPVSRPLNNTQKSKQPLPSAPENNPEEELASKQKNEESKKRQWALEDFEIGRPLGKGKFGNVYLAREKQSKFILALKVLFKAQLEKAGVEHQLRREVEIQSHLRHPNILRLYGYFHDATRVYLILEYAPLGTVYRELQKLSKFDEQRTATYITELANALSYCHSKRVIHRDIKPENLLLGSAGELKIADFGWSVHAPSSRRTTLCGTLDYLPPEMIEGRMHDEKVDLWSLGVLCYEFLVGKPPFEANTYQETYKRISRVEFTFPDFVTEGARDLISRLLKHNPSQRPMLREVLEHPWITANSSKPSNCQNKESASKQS
# [6] = target: MAP/microtubule affinity-regulating kinase 3 (Homo sapiens) (UniProt P27448); experiment: Inhibition of human MARK3 at 1.82 nM by HotSpot assay relative to control
# MAP/microtubule affinity-regulating kinase 3 (Homo sapiens), sequence (P27448 whole entry, looked up): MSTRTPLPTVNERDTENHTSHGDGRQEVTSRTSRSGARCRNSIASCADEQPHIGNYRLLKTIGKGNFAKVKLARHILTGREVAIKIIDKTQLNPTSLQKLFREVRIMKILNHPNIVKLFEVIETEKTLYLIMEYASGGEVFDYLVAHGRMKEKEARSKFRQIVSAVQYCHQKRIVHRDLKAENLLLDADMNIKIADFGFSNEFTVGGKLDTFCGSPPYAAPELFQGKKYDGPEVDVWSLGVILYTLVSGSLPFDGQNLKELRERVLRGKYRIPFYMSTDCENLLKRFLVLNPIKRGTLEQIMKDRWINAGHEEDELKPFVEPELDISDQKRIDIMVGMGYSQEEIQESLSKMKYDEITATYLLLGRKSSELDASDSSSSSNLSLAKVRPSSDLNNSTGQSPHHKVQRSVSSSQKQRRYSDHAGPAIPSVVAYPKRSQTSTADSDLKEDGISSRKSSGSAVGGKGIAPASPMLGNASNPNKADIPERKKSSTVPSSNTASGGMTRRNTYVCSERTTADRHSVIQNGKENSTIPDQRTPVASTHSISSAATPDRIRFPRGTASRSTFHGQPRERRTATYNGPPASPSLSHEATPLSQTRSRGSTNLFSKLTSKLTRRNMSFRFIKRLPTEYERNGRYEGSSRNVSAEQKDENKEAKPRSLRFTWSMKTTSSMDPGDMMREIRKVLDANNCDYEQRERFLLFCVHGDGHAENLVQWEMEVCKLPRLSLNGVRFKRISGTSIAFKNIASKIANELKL
# [7] = target: Serine/threonine-protein kinase 24 (Homo sapiens) (UniProt Q9Y6E0); experiment: Inhibition of human STK24 at 1.82 nM by HotSpot assay relative to control
# [8] = target: Ribosomal protein S6 kinase alpha-4 (Homo sapiens) (UniProt O75676); experiment: Inhibition of human RPS6KA4 at 1.82 nM by HotSpot assay relative to control
# [9] = target: Ephrin type-A receptor 4 (Homo sapiens) (UniProt P54764); experiment: Inhibition of human EPHA4 at 1.82 nM by HotSpot assay relative to control
# Ephrin type-A receptor 4 (Homo sapiens), sequence (P54764 whole entry): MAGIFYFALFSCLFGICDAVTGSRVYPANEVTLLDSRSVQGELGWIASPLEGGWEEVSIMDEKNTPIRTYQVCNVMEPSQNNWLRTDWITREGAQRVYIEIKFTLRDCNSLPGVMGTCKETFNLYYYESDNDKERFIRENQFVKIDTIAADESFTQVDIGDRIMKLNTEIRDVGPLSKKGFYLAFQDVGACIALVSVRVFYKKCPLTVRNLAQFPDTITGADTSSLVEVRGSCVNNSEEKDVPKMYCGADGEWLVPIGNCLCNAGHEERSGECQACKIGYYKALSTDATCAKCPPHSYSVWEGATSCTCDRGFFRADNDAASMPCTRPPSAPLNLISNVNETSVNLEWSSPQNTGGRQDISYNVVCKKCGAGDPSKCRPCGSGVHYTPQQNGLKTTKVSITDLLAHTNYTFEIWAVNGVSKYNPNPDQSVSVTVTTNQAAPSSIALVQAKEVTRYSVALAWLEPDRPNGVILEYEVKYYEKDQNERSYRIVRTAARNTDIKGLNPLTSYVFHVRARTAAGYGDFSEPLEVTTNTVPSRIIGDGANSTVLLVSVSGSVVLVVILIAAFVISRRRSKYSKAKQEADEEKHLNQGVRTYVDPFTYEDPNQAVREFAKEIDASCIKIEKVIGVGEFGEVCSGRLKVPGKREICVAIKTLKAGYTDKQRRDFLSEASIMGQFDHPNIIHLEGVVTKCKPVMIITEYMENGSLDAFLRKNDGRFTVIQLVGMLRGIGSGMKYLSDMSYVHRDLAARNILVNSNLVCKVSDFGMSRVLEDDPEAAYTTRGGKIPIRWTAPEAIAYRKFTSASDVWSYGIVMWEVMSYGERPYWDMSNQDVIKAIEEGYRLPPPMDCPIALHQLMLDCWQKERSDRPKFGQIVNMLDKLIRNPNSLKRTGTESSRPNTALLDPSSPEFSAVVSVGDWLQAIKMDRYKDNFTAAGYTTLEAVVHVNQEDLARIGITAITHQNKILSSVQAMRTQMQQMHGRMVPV
# [10] = target: Tyrosine-protein kinase Fes/Fps (Homo sapiens) (UniProt P07332); experiment: Inhibition of human FES at 1.82 nM by HotSpot assay relative to control
# [11] = target: T3, Serine/threonine-protein kinase Chk1 (Homo sapiens) (UniProt O14757); experiment: Inhibition of human CHK1 at 1.82 nM by HotSpot assay relative to control
# T3 sequence (whole entry): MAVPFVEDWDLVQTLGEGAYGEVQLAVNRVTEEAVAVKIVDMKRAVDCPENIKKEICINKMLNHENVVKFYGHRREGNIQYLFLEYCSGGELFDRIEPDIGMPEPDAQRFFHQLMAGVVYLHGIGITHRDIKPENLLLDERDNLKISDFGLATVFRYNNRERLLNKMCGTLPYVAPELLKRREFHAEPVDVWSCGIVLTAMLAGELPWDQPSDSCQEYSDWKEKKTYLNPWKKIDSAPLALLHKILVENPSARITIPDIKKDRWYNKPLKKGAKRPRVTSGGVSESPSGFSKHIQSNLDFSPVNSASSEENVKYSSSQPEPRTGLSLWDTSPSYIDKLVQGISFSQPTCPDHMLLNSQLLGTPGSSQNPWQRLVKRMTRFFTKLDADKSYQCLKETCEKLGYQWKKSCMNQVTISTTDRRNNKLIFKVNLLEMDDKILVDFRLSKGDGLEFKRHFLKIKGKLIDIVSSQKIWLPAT
# [12] = target: T4, Serine/threonine-protein kinase STK11 (Homo sapiens) (UniProt Q15831); experiment: Inhibition of human LKB1 at 1.82 nM by HotSpot assay relative to control
# T4 sequence (whole entry): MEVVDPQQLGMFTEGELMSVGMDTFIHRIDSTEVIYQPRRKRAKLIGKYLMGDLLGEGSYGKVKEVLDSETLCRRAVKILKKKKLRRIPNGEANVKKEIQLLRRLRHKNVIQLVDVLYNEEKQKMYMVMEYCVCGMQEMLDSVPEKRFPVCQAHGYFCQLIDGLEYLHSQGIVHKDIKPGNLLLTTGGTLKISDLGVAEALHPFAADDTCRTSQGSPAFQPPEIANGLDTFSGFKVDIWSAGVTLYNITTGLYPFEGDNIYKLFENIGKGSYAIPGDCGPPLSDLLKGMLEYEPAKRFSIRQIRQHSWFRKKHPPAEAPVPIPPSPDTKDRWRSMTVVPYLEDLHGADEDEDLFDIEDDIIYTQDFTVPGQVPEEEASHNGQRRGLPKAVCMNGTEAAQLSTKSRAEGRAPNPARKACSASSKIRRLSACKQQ
# [13] = target: Tyrosine-protein kinase Fer (Homo sapiens) (UniProt P16591); experiment: Inhibition of human FER at 1.82 nM by HotSpot assay relative to control
# Tyrosine-protein kinase Fer (Homo sapiens), sequence (P16591 whole entry, looked up): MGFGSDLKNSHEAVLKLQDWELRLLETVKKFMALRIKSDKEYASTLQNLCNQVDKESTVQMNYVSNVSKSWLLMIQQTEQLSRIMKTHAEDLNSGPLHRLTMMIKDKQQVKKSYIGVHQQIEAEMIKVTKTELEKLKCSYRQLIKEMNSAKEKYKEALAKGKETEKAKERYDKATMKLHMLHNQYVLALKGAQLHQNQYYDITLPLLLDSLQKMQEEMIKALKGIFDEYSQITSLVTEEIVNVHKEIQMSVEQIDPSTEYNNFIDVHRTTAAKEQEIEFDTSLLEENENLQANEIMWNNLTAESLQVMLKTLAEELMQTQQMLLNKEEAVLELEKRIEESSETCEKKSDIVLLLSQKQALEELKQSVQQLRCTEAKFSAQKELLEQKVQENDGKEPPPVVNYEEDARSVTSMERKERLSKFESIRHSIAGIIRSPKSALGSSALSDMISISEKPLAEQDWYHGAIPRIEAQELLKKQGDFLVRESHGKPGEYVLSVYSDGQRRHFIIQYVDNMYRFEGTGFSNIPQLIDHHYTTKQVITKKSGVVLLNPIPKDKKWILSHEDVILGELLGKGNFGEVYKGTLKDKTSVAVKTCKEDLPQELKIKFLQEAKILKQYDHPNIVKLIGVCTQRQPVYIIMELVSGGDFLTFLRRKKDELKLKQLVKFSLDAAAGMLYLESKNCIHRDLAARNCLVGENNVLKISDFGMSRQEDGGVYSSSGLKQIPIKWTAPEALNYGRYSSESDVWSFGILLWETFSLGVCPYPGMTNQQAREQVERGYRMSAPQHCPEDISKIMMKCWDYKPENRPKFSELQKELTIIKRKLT
# [14] = target: Misshapen-like kinase 1 (Homo sapiens) (UniProt Q8N4C8); experiment: Inhibition of human MINK1 at 1.82 nM by HotSpot assay relative to control
# Misshapen-like kinase 1 (Homo sapiens), sequence (Q8N4C8 whole entry, looked up): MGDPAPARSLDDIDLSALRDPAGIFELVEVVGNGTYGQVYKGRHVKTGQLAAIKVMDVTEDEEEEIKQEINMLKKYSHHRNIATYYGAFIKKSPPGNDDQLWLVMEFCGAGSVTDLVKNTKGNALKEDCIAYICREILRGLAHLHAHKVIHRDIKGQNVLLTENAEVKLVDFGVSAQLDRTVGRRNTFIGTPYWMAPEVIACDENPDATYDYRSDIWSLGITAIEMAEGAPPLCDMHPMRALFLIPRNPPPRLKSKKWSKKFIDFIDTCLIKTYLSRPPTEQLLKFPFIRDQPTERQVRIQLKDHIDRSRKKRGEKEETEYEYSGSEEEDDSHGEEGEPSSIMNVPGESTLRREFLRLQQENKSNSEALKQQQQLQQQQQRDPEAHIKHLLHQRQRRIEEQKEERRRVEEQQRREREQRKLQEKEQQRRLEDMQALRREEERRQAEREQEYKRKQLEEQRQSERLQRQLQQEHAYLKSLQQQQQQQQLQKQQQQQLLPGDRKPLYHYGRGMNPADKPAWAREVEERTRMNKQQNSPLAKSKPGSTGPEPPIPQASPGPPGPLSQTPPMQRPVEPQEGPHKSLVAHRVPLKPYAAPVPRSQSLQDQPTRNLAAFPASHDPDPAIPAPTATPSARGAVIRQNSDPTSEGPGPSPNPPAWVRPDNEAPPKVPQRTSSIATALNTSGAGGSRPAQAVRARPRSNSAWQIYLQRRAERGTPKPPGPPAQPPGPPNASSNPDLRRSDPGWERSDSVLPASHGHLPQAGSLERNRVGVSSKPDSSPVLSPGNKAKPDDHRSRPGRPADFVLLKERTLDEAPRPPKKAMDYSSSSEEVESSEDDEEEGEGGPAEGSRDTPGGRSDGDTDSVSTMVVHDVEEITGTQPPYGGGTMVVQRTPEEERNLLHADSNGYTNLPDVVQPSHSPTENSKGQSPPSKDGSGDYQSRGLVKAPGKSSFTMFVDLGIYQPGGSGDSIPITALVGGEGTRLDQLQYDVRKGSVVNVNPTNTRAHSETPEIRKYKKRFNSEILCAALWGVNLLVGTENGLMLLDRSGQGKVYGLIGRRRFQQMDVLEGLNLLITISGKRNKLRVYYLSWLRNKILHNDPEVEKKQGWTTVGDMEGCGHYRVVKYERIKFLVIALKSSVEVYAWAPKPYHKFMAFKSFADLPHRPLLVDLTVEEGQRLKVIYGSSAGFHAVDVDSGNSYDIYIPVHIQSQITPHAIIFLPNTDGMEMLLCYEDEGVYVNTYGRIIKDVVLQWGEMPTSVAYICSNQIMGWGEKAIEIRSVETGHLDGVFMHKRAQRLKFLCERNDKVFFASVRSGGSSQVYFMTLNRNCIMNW
# Fibroblast growth factor receptor 3 (Homo sapiens), sequence (P22607 23-806 limits assumed): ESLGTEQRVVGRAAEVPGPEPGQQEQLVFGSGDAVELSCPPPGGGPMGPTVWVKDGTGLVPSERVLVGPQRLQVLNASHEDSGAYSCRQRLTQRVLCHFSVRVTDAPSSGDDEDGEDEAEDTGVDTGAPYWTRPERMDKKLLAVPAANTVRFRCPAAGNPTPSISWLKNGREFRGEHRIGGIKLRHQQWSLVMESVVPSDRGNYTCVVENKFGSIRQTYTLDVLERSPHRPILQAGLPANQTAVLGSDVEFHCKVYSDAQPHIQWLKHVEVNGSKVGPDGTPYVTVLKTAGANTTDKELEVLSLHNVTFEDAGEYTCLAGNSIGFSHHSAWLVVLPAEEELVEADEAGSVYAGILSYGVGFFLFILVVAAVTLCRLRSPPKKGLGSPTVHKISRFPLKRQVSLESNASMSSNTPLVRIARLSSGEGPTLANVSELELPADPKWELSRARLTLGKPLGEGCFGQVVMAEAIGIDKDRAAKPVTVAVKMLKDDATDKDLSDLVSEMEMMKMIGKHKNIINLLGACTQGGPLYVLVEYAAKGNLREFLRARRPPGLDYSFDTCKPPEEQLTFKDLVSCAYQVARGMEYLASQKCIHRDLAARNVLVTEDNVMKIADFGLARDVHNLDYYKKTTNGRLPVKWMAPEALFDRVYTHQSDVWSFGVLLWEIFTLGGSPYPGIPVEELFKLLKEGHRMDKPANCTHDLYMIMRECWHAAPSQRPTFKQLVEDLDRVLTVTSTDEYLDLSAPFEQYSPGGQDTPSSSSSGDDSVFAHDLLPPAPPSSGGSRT
# Calcium/calmodulin-dependent protein kinase type 1 (Homo sapiens), sequence (Q14012 whole entry, looked up): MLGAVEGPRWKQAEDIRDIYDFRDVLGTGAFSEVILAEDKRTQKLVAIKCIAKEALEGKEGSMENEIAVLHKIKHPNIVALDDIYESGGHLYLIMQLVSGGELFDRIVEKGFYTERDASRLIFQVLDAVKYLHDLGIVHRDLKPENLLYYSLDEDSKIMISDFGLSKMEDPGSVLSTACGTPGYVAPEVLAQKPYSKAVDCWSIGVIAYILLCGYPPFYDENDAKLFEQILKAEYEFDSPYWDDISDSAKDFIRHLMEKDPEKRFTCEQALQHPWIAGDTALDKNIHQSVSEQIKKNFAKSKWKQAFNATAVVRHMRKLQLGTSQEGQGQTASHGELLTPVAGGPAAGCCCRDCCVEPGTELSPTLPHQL
inhibition [1],inhibition [2],inhibition [3],inhibition [4],inhibition [5],inhibition [6],inhibition [7],inhibition [8],inhibition [9],inhibition [10],inhibition [11],inhibition [12],inhibition [13],inhibition [14],SMILES
8.2%,9.19%,5.65%,,,,,,,,,,,,C[C@]1(O)C[C@@H](c2nc(-c3ccc4ccc(-c5ccccc5)nc4c3)c3c(N)nccn32)C1
,,,-3.98%,30%,1.57%,2.42%,-3.34%,-4.4%,5.24%,-4.39%,4.47%,-2.54%,0.36%,C[C@@]1(C(=O)Nc2ccc(F)nc2)CCCN1c1nc(Nc2cc(C3CC3)n[nH]2)c2cccn2n1
